# Experimental data reported in the NIST ThermoML archive (doi:10.1021/je049801y).
# Numbers after ± are expanded uncertainties.
# Conditions: Crystal
row,Normal melting temperature [°C],SMILES
1,348.1 ± 1,"O=C(O)c1cccc(C(=O)O)c1 [1,3-benzenedicarboxylic acid]"
2,430.0 ± 1,"O=C(O)c1ccc(C(=O)O)cc1 [1,4-benzenedicarboxylic acid]"
3,182.0 ± 1,Cc1ccc(C(=O)O)cc1 [4-methylbenzoic acid]
4,122.4 ± 1,O=C(O)c1ccccc1 [benzoic acid]
